In patent US12655116B2, “Substituted isophthalic acid diamides” (Bayer Aktiengesellschaft, priority 2020, dated 2026):

How the values were obtained:
ABUTH [1] = experiment: Pre-emergence herbicidal action against ABUTH; assay type: in vivo, Abutilon theophrasti; conditions: Abutilon theophrasti, 504 h; for pest or weed control at 80 g/ha: scored visually after 3 weeks vs untreated controls (100% = plants have died, 0% = like control plants); for pest or weed control at 20 g/ha: dosage 20 g/ha, scored visually after 3 weeks vs untreated controls, 100% = plants have died, 0% = like control plants, read-out: Pre-emergence action against ABUTH (herbicidal activity in percent)
Method in brief: (§1)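 Visual rating at 3 weeks vs untreated pots; 0–100% scale, 100% = plants died. Treatment: aqueous WP/EC spray onto covering soil, 600–800 l/ha, 0.2% wetter, seeds in sandy loam.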

VIOTR [2] = experiment: Post-emergence herbicidal action against VIOTR; assay type: in vivo, Viola tricolor; conditions: Viola tricolor, 504 h
Method in brief: (§2)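 Weeds in sandy loam soil received a post-emergence spray at the one-leaf stage. Compounds were applied as WP or EC in water, 600 to 800 l/ha, with 0.2% wetting agent. Activity in % was judged visually after roughly 3 weeks against untreated plants.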

VIOTR [3] = experiment: Pre-emergence herbicidal action against VIOTR; assay type: in vivo, Viola tricolor; conditions: Viola tricolor, 504 h; for pest or weed control at 20 g/ha: dosage 20 g/ha; for pest or weed control at 80 g/ha: dosage 80 g/ha
Method in brief: as §1

MATIN [4] = experiment: Post-emergence herbicidal action against MATIN; assay type: in vivo, Matricaria inodora; conditions: Tripleurospermum inodorum, 504 h; for pest or weed control at 5 g/ha: dosage 5 g/ha; for pest or weed control at 20 g/ha: dosage 20 g/ha
Method in brief: as §2

VERPE [5] = experiment: Post-emergence herbicidal action against VERPE; assay type: in vivo, Veronica persica; conditions: Veronica persica, 504 h
Method in brief: as §2

ECHCG [6] = experiment: Pre-emergence herbicidal action against ECHCG; assay type: in vivo, Echinochloa crus-galli; conditions: Echinochloa crus-galli, 504 h
Method in brief: as §1

ALOMY = experiment: Pre-emergence herbicidal action against ALOMY; assay type: in vivo, Alopecurus myosuroides; conditions: Alopecurus myosuroides, 504 h; 80 g/ha, pre-emergence, scored visually after 3 weeks vs untreated controls (100% = plants have died, 0% = like control plants)
Method in brief: as §1

POLCO = experiment: Pre-emergence herbicidal action against POLCO; assay type: in vivo, Polygonum convolvulus; conditions: Fallopia convolvulus, 504 h; for pest or weed control at 20 g/ha: dosage 20 g/ha; for pest or weed control at 80 g/ha: dosage 80 g/ha
Method in brief: as §1

MATIN [7] = experiment: Pre-emergence herbicidal action against MATIN; assay type: in vivo, Matricaria inodora; conditions: Tripleurospermum inodorum, 504 h; for pest or weed control at 20 g/ha: dosage 20 g/ha; for pest or weed control at 80 g/ha: dosage 80 g/ha
Method in brief: as §1

ECHCG [8] = experiment: Post-emergence herbicidal action against ECHCG; assay type: in vivo, Echinochloa crus-galli; conditions: Echinochloa crus-galli, 504 h; for pest or weed control at 5 g/ha: dosage 5 g/ha; for pest or weed control at 20 g/ha: dosage 20 g/ha
Method in brief: as §2

PHBPU [9] = experiment: Post-emergence herbicidal action against PHBPU; assay type: in vivo, Pharbitis purpurea; conditions: Ipomoea purpurea, 504 h; for pest or weed control at 20 g/ha: dosage 20 g/ha
Method in brief: as §2

DIGSA [10] = experiment: Pre-emergence herbicidal action against DIGSA; assay type: in vivo, Digitaria sanguinalis; conditions: Digitaria sanguinalis, 504 h; for pest or weed control at 20 g/ha: dosage 20 g/ha; for pest or weed control at 80 g/ha: dosage 80 g/ha
Method in brief: as §1

AMARE [11] = experiment: Post-emergence herbicidal action against AMARE; assay type: in vivo, Amaranthus retroflexus; conditions: Amaranthus retroflexus, 504 h, 20 g/ha, visual assessment about 3 weeks after treatment, 100% = plants have died, 0% = like control plants
Method in brief: as §2

AMARE [12] = experiment: Pre-emergence herbicidal action against AMARE; assay type: in vivo, Amaranthus retroflexus; conditions: Amaranthus retroflexus, 504 h, scored visually after 3 weeks vs untreated controls, 100% = plants have died, 0% = like control plants
Method in brief: as §1

AVEFA = experiment: Pre-emergence herbicidal action against AVEFA; assay type: in vivo, Avena fatua; conditions: Avena fatua, 504 h; 80 g/ha, pre-emergence
Method in brief: as §1

PHBPU [13] = experiment: Pre-emergence herbicidal action against PHBPU; assay type: in vivo, Pharbitis purpurea; conditions: Ipomoea purpurea, 504 h; for pest or weed control at 80 g/ha: dosage 80 g/ha
Method in brief: as §1

VERPE [14] = experiment: Pre-emergence herbicidal action against VERPE; assay type: in vivo, Veronica persica; conditions: Veronica persica, 504 h, dosage 80 g/ha
Method in brief: as §1

SETVI [15] = experiment: Post-emergence herbicidal action against SETVI; assay type: in vivo, Setaria viridis; conditions: Setaria viridis, 504 h; for pest or weed control at 5 g/ha: dosage 5 g/ha; for pest or weed control at 20 g/ha: dosage 20 g/ha
Method in brief: as §2

ABUTH [16] = experiment: Post-emergence herbicidal action against ABUTH; assay type: in vivo, Abutilon theophrasti; conditions: Abutilon theophrasti, 504 h, visual assessment about 3 weeks after treatment vs untreated controls; for pest or weed control at 5 g/ha: dosage 5 g/ha; for pest or weed control at 20 g/ha: dosage 20 g/ha
Method in brief: as §2

DIGSA [17] = experiment: Post-emergence herbicidal action against DIGSA; assay type: in vivo, Digitaria sanguinalis; conditions: Digitaria sanguinalis, 504 h
Method in brief: as §2

SETVI [18] = experiment: Pre-emergence herbicidal action against SETVI; assay type: in vivo, Setaria viridis; conditions: Setaria viridis, 504 h; for pest or weed control at 20 g/ha: dosage 20 g/ha; for pest or weed control at 80 g/ha: dosage 80 g/ha
Method in brief: as §1

CCc1c(C(=O)Nc2nnnn2C)ccc(C(F)F)c1C(=O)NC1CC1 [Example 1-279]
90%: pest or weed control at 5 g/ha (VIOTR [2]) | pest or weed control at 20 g/ha (VIOTR [2]) | pest or weed control at 5 g/ha (MATIN [4]) | pest or weed control at 20 g/ha (MATIN [4]) | pest or weed control at 80 g/ha (POLCO) | pest or weed control at 20 g/ha (ECHCG [8]) | pest or weed control at 5 g/ha (PHBPU [9]; dosage 5 g/ha) | pest or weed control at 20 g/ha (PHBPU [9]) | pest or weed control at 80 g/ha (AVEFA) | pest or weed control at 80 g/ha (PHBPU [13]) | pest or weed control at 80 g/ha (VERPE [14]) | pest or weed control at 5 g/ha (SETVI [15]) | pest or weed control at 20 g/ha (SETVI [15]) | pest or weed control at 20 g/ha (ABUTH [16]) | pest or weed control at 5 g/ha (DIGSA [17]) | pest or weed control at 20 g/ha (DIGSA [17])
100%: pest or weed control at 80 g/ha (ABUTH [1]) | pest or weed control at 20 g/ha (ABUTH [1]) | pest or weed control at 20 g/ha (VIOTR [3]) | pest or weed control at 80 g/ha (VIOTR [3]) | pest or weed control at 20 g/ha (VERPE [5]) | pest or weed control at 80 g/ha (ECHCG [6]) | pest or weed control at 20 g/ha (MATIN [7]) | pest or weed control at 80 g/ha (MATIN [7]) | pest or weed control at 20 g/ha (DIGSA [10]) | pest or weed control at 80 g/ha (DIGSA [10]) | pest or weed control at 20 g/ha (AMARE [11]) | pest or weed control at 20 g/ha (AMARE [12]) | pest or weed control at 80 g/ha (AMARE [12]) | pest or weed control at 80 g/ha (SETVI [18])
80%: pest or weed control at 5 g/ha (VERPE [5]) | pest or weed control at 80 g/ha (ALOMY) | pest or weed control at 20 g/ha (POLCO) | pest or weed control at 5 g/ha (ECHCG [8]) | pest or weed control at 5 g/ha (ABUTH [16]) | pest or weed control at 20 g/ha (SETVI [18])

CNC(=O)c1c(C(F)(F)F)ccc(C(=O)Nc2nnnn2C)c1OC [Example 1-56]
100%: pest or weed control at 5 g/ha (VIOTR [2]) | pest or weed control at 20 g/ha (VIOTR [2]) | pest or weed control at 20 g/ha (VIOTR [3]) | pest or weed control at 80 g/ha (VIOTR [3]) | pest or weed control at 20 g/ha (AMARE [11]) | pest or weed control at 20 g/ha (AMARE [12]) | pest or weed control at 80 g/ha (AMARE [12]) | pest or weed control at 5 g/ha (SETVI [15]) | pest or weed control at 20 g/ha (SETVI [15]) | pest or weed control at 20 g/ha (ABUTH [16]) | pest or weed control at 20 g/ha (DIGSA [17]) | pest or weed control at 80 g/ha (SETVI [18])
90%: pest or weed control at 80 g/ha (ABUTH [1]) | pest or weed control at 20 g/ha (MATIN [4]) | pest or weed control at 20 g/ha (VERPE [5]) | pest or weed control at 80 g/ha (ECHCG [6]) | pest or weed control at 80 g/ha (ALOMY) | pest or weed control at 80 g/ha (POLCO) | pest or weed control at 20 g/ha (MATIN [7]) | pest or weed control at 80 g/ha (MATIN [7]) | pest or weed control at 20 g/ha (ECHCG [8]) | pest or weed control at 80 g/ha (VERPE [14]) | pest or weed control at 5 g/ha (DIGSA [17]) | pest or weed control at 20 g/ha (SETVI [18])
80%: pest or weed control at 5 g/ha (ECHCG [8]) | pest or weed control at 20 g/ha (PHBPU [9]) | pest or weed control at 80 g/ha (DIGSA [10]) | pest or weed control at 80 g/ha (AVEFA) | pest or weed control at 20 g/ha (PHBPU [13]; dosage 20 g/ha) | pest or weed control at 80 g/ha (PHBPU [13]) | pest or weed control at 5 g/ha (ABUTH [16])

CCNC(=O)c1c(C(F)F)ccc(C(=O)Nc2nnnn2C)c1CC [Example 1-278]
80%: pest or weed control at 5 g/ha (MATIN [4]) | pest or weed control at 5 g/ha (VERPE [5]) | pest or weed control at 5 g/ha (ABUTH [16])
100%: pest or weed control at 80 g/ha (ABUTH [1]) | pest or weed control at 20 g/ha (VIOTR [3]) | pest or weed control at 80 g/ha (VIOTR [3]) | pest or weed control at 80 g/ha (ECHCG [6]) | pest or weed control at 80 g/ha (POLCO) | pest or weed control at 20 g/ha (MATIN [7]) | pest or weed control at 80 g/ha (MATIN [7]) | pest or weed control at 20 g/ha (DIGSA [10]) | pest or weed control at 80 g/ha (DIGSA [10]) | pest or weed control at 20 g/ha (AMARE [12]) | pest or weed control at 80 g/ha (AMARE [12]) | pest or weed control at 80 g/ha (VERPE [14]) | pest or weed control at 80 g/ha (SETVI [18])
90%: pest or weed control at 20 g/ha (ABUTH [1]) | pest or weed control at 5 g/ha (VIOTR [2]) | pest or weed control at 20 g/ha (VIOTR [2]) | pest or weed control at 20 g/ha (MATIN [4]) | pest or weed control at 20 g/ha (VERPE [5]) | pest or weed control at 20 g/ha (ECHCG [6]; 20 g/ha) | pest or weed control at 80 g/ha (ALOMY) | pest or weed control at 20 g/ha (POLCO) | pest or weed control at 5 g/ha (ECHCG [8]) | pest or weed control at 20 g/ha (ECHCG [8]) | pest or weed control at 20 g/ha (PHBPU [9]) | pest or weed control at 20 g/ha (AMARE [11]) | pest or weed control at 80 g/ha (AVEFA) | pest or weed control at 80 g/ha (PHBPU [13]) | pest or weed control at 20 g/ha (SETVI [15]) | pest or weed control at 20 g/ha (ABUTH [16]) | pest or weed control at 5 g/ha (DIGSA [17]) | pest or weed control at 20 g/ha (DIGSA [17])
